Laboratory results reported in article PMC9115709, “TIMP‐1‐expressing breast tumor spheroids for the evaluation of drug penetration and efficacy” (Bioengineering & Translational Medicine, 2021).

Columns and labels:
MDA-MB-231 cells = experiment: IC50 in MDA-MB-231 monolayer cells; format: cell-based, human; details: MDA-MB-231 monolayer cells; read-out: MDA-MB-231 IC50
[1] = system: Multicellular spheroids with hASC and MDA-MB-231; experiment: Drug efficacy in hASC and MDA-MB-231 multicellular (A:M) spheroids, CellTiter-Glo 3D; format: cell-based, human; details: drug at IC50 of MDA-MB-231 monolayer cells, 2 days
Description: (§1) To form 3D multicellular tumor spheroids, cells was trypsinized and suspended in the growth media. Stromal cells and breast cancer cells were plated with a density of 5 × 10^3 cells /25 μL into 96‐well plate precoated with poly‐HEMA, respectively, resulting in 1 × 10^4 cells exist per each well. After seeding, the plate was centrifuged for 2 min at 1000 rpm to collect the cells in the center of the well. Fifty microliters of 10% Matrigel® Basement Membrane Matrix (Corning, NY, USA) solution diluted in media was gently added into the plate on ice to prevent matrigel from gelation. Monocellular spheroids were generated by a single culture of stromal cells or breast cancer cells. Cells were seeded with a density of 1 × 10^4 cells per well with 50 μL of 10% matrigel on a poly‐HEMA‐coated plate. Then, the plate with cells and matrigel was centrifuged at 1000 rpm for 2 min, and incubated for 48 h at 37°C with 5% CO2.

[2] = system: Multicellular spheroids with hASC and MDA-MB-231; experiment: Permeability value (PV) in the 3D tumor model; details: PV = EffA:M - 1/2(EffASC + EffMDA), Equation (4)
Description: Therefore, we defined the permeability value (PV) of each drug as the difference in efficacy in multicellular and monocellular spheroids, as determined by Equation (4).
After treating the drug with spheroids for 2 days, the efficacy of the drug was evaluated by CellTiter‐Glo® 3D Cell Viability Assay (Promega). […] (4) PV=EffA:M−1/2EffASC+EffMDA.

[3] = system: MDA-MB-231 monocellular spheroids; experiment: Drug efficacy in MDA-MB-231 monocellular spheroids; format: cell-based, human; details: drug at IC50 of MDA-MB-231 monolayer cells, 2 days
Description: as §1

[4] = system: hASC monocellular spheroids; experiment: Drug efficacy in hASC monocellular spheroids; format: cell-based, human; details: drug at IC50 of MDA-MB-231 monolayer cells, 2 days
Description: as §1

CC1(C)[C@@H](O[C@H]2O[C@H](C(=O)O)[C@@H](O)[C@H](O)[C@H]2O[C@@H]2O[C@H](C(=O)O)[C@@H](O)[C@H](O)[C@H]2O)CC[C@]2(C)[C@H]3C(=O)C=C4[C@@H]5C[C@@](C)(C(=O)O)CC[C@]5(C)CC[C@@]4(C)[C@]3(C)CC[C@@H]12 [Ammonium-glycyrrhizinate]
IC50 (MDA-MB-231 cells): 72.1 µM | A:M spheroid Efficacy (EffA:M, %) [1]: 27.510% | Experiment's PV #1 ([2]; #1): -0.114 | Experiment's PV #2 ([2]; #2): -0.075 | Experiment's PV #3 ([2]; #3): -0.095 | MDA spheroid Efficacy (EffMDA, %) [3]: 40.204% | hASC spheroid Efficacy (EffASC, %) [4]: 33.753%
